Consider four compounds from patent US6410593B1, “Antidandruff compositions” (priority 1998, dated 2002).

Read-outs that look alike come from different tables or passages of the source.

Data set [1] concerns Pityrosporum ovalae. The data set is described as follows: minimum inhibitory doses (M.I.C.) for Pityrosporum ovalae. Format: cell-based. From the text: (§1) Undecylenamidopropylbetaine (Amphoram®U from CECA S.A.) was compared with piroctone olamine (CFTA) or 1-hydroxy-4-methyl-6-(2,4,4-trimethylpentyl)-2(1H)pyridone; ethanol (1:1) salt (RN=68890-66-4), taken in its commercial form as Octopyrox® (Hoechst), at the minimum inhibitory doses (M.I.C.) for Pityrosporum ovalae, i.e., respectively, 2% and 0.2% beforehand.

Data set [2] in a line: sebumetry index measured with the Courage-Khazka sebumeter, Test Panel of 20 individuals. As to conditions: 15 days.
Data set [3] has as its system dandruff. The data set can be described thus: antidandruff efficacy test over 15 days on a Test Panel of 20 individuals. Format: in vivo. As to conditions: for Area occupied by dandruff, percentage of variations on D15 relative to D1 / Dandruff removal index, percentage of variations on D15 relative to D1: products at their M.I.C. (2% and 0.2%).
Source text: as §1

The conditions of data set [4]: background statement; cited from earlier work.
The conditions of data set [5]: in vivo.

Consider `CCO.Cc1cc(CC(C)CC(C)(C)C)n(O)c(=O)c1` (stereo not drawn) [Octopyrox, 1-hydroxy-4-methyl-6-(2,4,4-trimethylpentyl)-2(1H)pyridone; ethanol (1:1) salt], for which the “minimum inhibitory doses (M.I.C.) for Pityrosporum ovalae” value in data set [1] came to 0.2%. For the same compound, the “Sebumetry index, percentage of variation on D15 relative to D1” value in data set [2] was −4%. In data set [3], the “state of dandruff (decrease in the area occupied and increase in the dandruff removal index)” value is listed as “remained stable”; the “Area occupied by dandruff, percentage of variations on D15 relative to D1” value is listed as −7%; the “Dandruff removal index, percentage of variations on D15 relative to D1” value is −5%.
On to `CC(C)(C)C(=O)C(Oc1ccc(Cl)cc1)n1ccnc1` (stereo not drawn) [climbazole], for which the solubility in water result in data set [4] was “water-insoluble”.
On to “N-(carboxymethyl)-N,N-dimethyl-3-[(1-oxoundecenyl)amino]-1-propanaminium hydroxide [Amphoram U]”, for which, in data set [1], the “minimum inhibitory doses (M.I.C.) for Pityrosporum ovalae” value came to 2%. Moreover, in data set [3], the “state of dandruff (decrease in the area occupied and increase in the dandruff removal index)” value is 30 to 40%; the “Area occupied by dandruff, percentage of variations on D15 relative to D1” value was −29%; the “Dandruff removal index, percentage of variations on D15 relative to D1” value is −36%. The “Sebumetry index, percentage of variation on D15 relative to D1” value in data set [5] is given as −7%.
On to zinc pyrithione, for which, in data set [4], the solubility in water entry is listed as “water-insoluble”.
